Laboratory results taken from publication PMC11472328, “Targeting Plasmodium falciparum IspD in the Methyl-D-erythritol Phosphate Pathway: Urea-Based Compounds with Nanomolar Potency on Target and Low-Micromolar Whole-Cell Activity” (Journal of Medicinal Chemistry, 2024).
≈ marks a conversion by molar mass, not a printed value. Like-named read-outs stand apart in the source and are kept apart here.

How the values were obtained:
EcIspE = EcIspE (Escherichia coli, UniProt P62615); experiment: Activity against auxiliary enzyme EcIspE; format: biochemical
Sequence of EcIspE (P62615 whole entry): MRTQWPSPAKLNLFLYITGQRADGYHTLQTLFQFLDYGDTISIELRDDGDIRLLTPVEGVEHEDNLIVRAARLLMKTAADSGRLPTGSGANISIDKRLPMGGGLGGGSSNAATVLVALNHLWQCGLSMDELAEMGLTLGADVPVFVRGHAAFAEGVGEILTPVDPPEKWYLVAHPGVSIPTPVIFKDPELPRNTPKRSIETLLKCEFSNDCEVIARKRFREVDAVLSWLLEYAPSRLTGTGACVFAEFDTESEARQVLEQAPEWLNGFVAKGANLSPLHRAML

PK-LDH = experiment: Activity against auxiliary enzymes PK-LDH; format: biochemical
E. coli K12 = experiment: Growth inhibition of E. coli K12; format: cell-based; settings: Escherichia coli
PfNF54 = experiment: Whole-cell assay, [3H]-hypoxanthine incorporation; format: cell-based, Plasmodium falciparum; settings: mean ± SD, n.a. = absence of activity
Protocol: After incubation for 48 h, 0.25 μCi of [^3H]-hypoxanthine was added per well and plates were incubated for an additional 24 h.

PfIspD [1] = target: T1, PfIspD (Plasmodium falciparum, UniProt Q8I273); experiment: Photometric in vitro PfIspD assay; format: biochemical; settings: mean ± SD, n ≥ 2; n.a. = absence of activity
T1 sequence (Q8I273 1-734): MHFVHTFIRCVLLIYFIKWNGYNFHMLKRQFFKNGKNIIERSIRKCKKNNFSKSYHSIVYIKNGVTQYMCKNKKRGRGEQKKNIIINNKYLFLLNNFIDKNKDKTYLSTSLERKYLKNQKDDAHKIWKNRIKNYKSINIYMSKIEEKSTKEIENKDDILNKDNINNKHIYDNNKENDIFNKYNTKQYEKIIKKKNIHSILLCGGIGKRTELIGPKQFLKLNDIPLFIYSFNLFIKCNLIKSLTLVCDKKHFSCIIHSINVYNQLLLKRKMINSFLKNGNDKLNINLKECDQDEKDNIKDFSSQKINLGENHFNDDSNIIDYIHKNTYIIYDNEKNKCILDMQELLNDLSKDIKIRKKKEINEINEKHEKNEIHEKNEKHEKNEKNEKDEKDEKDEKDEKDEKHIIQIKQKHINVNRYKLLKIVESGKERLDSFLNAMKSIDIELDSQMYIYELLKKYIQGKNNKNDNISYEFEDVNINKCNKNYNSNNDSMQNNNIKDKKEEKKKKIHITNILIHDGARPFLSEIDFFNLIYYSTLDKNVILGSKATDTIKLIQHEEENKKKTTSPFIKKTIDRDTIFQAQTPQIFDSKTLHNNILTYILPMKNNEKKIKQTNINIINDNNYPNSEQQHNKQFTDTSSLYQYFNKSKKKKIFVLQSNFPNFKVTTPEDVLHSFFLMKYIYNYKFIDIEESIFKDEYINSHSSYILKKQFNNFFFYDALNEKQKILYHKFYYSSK
Protocol: Dilution series (1:2) of inhibitors in DMSO covered the concentration range of approximately 200–0.01 μM. After finishing the dilution series, the final volume of compound solution in DMSO per well was 3 μL. For the IspD assay, 30 μL aliquots of a solution containing 100 mM Tris-HCl, pH 7.6, 0.02% NaN3, 1 mM MEP and 1 mM CTP were added to microplate wells preloaded with 3 μL of DMSO containing test compounds. […] Initial rates were estimated using Softmax Pro 6.1 software (Molecular Devices, Biberach an der Riss, Germany). IC50 values were determined with a nonlinear regression method using the program Dynafit.[21]

PfIspD [2] = target: T1, PfIspD; experiment: Determination of enzyme kinetics, LC-MS based IspD assay; format: biochemical; settings: our results, n = 2, mean ± SD; read-out: Km^CTP
Protocol: (§1) A volume of 80 μL Buffer A containing 100 mM Tris-HCl pH 7.6, 1 mM DTT, 1 mM MgCl2, 50 nM PfIspD were added to well A1 96-well plate while 50 μL were added to the rest of the wells. A volume of 20 μL of 10 mM CTP was added to the first well, then a serial dilution was conducted by moving 50 μL. To start the reaction, we then added on buffer A 50 μL of Buffer B containing 100 mM Tris-HCl pH 7.6, 1 mM DTT, and 1 mM MEP. The assay plate was incubated at 37 °C for 40 min, after which, the protein was denaturated by heating up the plate to 95 °C for 5 min. The plate was then centrifuged at 4000 rpm at 4 °C for 5 min to precipitate the protein. […] Thereafter, 10 μL of each of the supernatants from the assay plate were added to the plate containing the mixture with our internal standard. The plate was centrifuged again at 4000 rpm at 4 °C for 5 min, after which, 50 μL of the supernatant was transferred to an LC-MS plate and closed with a silicon cover. LC-MS conditions and data analysis methods we used were described above. The peak area for each conditions were used to calculate the Michaelis–Menten kinetic parameters using Graphpad Prism v 9. Measurements were performed in duplicates, repeated at least two times from two to three independent experiments.

IspD = settings: cited from earlier work
[3] = tested on: Mtb H37Rv mCherry 10 strain; experiment: MIC 90 against Mtb H37Rv mCherry 10 strain; format: cell-based; settings: Mycobacterium tuberculosis, read-out: MIC 90 (growth inhibition) of Mtb H37Rv mCherry 10 strain
[4] = tested on: Pf3D7 (WT) and MMV008138 resistant parasites (R2 and R3); experiment: IDP rescue assay; format: cell-based, Plasmodium falciparum; settings: 200 μM IDP, 72 h
Protocol: The parasite growth was quantified by measuring DNA content using PicoGreen assay (Invitrogen). IC50 values were calculated by nonlinear regression analysis using GraphPad Prism software and reflect the mean ± standard error of the mean (SEM) from at least three independent experiments. Statistical comparison of the values was done via one-way ANOVA.

malaria = tested on: malaria; parameters: method as in Fernandes et al. [6]−[8]; settings: children, combination therapy, meta-analysis ref Fernandes et al. [6]−[8]; cited from earlier work
[5] = substrate: C[C@](O)(CO)[C@H](O)COP(=O)(O)O; experiment: Determination of enzyme kinetics, LC-MS based IspD assay; format: biochemical, Plasmodium falciparum; settings: other: our results, n = 2, mean ± SD; pH 7.6
Protocol: as §1

O=C(Nc1ccc(C(F)(F)F)cc1)Nc1cccc(S(=O)(=O)N2CCCC2)c1 [Compound 11, 1-(3-(Pyrrolidin-1-ylsulfonyl)phenyl)-3-(4-(trifluoromethyl)phenyl)urea]
IC50 (EcIspE; auxiliary enzyme, read-out: EcIspE (IC50 µM)): 73 ± 15 µM | IC50 (PK-LDH): 73 ± 15 µM

O=C(Nc1ccc(Cl)cc1)Nc1cccc(S(=O)(=O)N2CCCC2)c1 [Compound 5, 1-(4-Chlorophenyl)-3-(3-(pyrrolidin-1-ylsulfonyl)phenyl)urea]
inhibition at 100 µM (E. coli K12): 45 ± 6%

Nc1ccc(NC(=O)Nc2cccc(S(=O)(=O)N3CCCC3)c2)cc1 [Compound 4, 1-(4-Aminophenyl)-3-(3-(pyrrolidin-1-ylsulfonyl)phenyl)urea]
PfNF54 (IC50 μM) (PfNF54): lacking whole-cell activity

1-(4-Methyl-3-(morpholinosulfonyl)phenyl)-3-(4-nitrophenyl)urea [Compound 33]
IC50 (PfIspD [1]): > 10000 nM

O=C(Nc1ccc([N+](=O)[O-])cc1)Nc1cccc(S(=O)(=O)N2CCCCC2)c1 [Compound 26, 1-(4-Nitrophenyl)-3-(3-(piperidin-1-ylsulfonyl)phenyl)urea]
IC50 (EcIspE): 49 ± 7 µM | IC50 (PK-LDH): > 500 µM

Nc1ccn([C@@H]2O[C@H](COP(=O)(O)OP(=O)(O)OP(=O)(O)O)[C@@H](O)[C@H]2O)c(=O)n1 [CTP, cytidine triphosphate]
Km (PfIspD [2]): 58 ± 9 µM | Km (IspD; ref Ghavami et al.[18], read-out: Km^CTP): 9 ± 3 µM | Km (IspD; ref Imlay et al.[12], read-out: Km^CTP): 59 ± 4 µM

O=C(Nc1ccc([N+](=O)[O-])cc1)Nc1cccc(S(=O)(=O)N2CCOCC2)c1 [Compound 27, 1-(3-(Morpholinosulfonyl)phenyl)-3-(4-nitrophenyl)urea]
IC50 (EcIspE): > 500 µM | IC50 (PK-LDH): 104 ± 19 µM

N#Cc1ccc(NC(=O)Nc2cccc(S(=O)(=O)N3CCCC3)c2)cc1 [Compound 10, 1-(4-Cyanophenyl)-3-(3-(pyrrolidin-1-ylsulfonyl)phenyl)urea]
inhibition at 100 µM (E. coli K12): 46 ± 4% | MIC90 [3]: 64 µM (≈ 23.7 µg/mL) | effect of IDP supplementation on sensitivity [4]: equalized the sensitivity of the resistant strains and the wild type

CS(=O)(=O)c1ccc(NC(=O)Nc2cccc(S(=O)(=O)N3CCCC3)c2)cc1 [Compound 9, 1-(4-(Methylsulfonyl)phenyl)-3-(3-(pyrrolidin-1-ylsulfonyl)phenyl)urea]
IC50 (EcIspE): > 500 µM | IC50 (PK-LDH): > 500 µM

O=C(Nc1ccc([N+](=O)[O-])cc1)Nc1cccc(S(=O)(=O)N2CCCC2)c1 [Compound 8, 1-(4-Nitrophenyl)-3-(3-(pyrrolidin-1-ylsulfonyl)phenyl)urea]
inhibition at 100 µM (E. coli K12): 14 ± 5%

COC(=O)c1ccc(NC(=O)Nc2cccc(S(=O)(=O)N3CCCC3)c2)cc1 [Compound 7, Methyl 4-(3-(3-(Pyrrolidin-1-ylsulfonyl)phenyl)ureido)benzoate]
IC50 (EcIspE): > 500 µM | IC50 (PK-LDH): 242 ± 72 µM

C[C@](O)(CO)[C@H](O)COP(=O)(O)O [MEP, 2-C-methylerythritol-D-erythritol-4-phosphate]
Km (IspD; ref Ghavami et al.[18], read-out: Km^MEP): 12 ± 3 µM | Km (IspD; ref Wu et al.[14], read-out: Km^MEP): 61 µM

O=C(Nc1ccc([N+](=O)[O-])cc1)Nc1ccc(F)c(S(=O)(=O)N2CCOCC2)c1 [Compound 31, 1-(4-Fluoro-3-(morpholinosulfonyl)phenyl)-3-(4-nitrophenyl)urea]
IC50 (EcIspE): 75 ± 11 µM | IC50 (PK-LDH): > 500 µM

O=CN(O)CCCP(=O)(O)O [fosmidomycin]
cure rate (malaria): 85%

B1: PfIspD (Plasmodium falciparum 3D7) (protein)
chain: MHFVHTFIRCVLLIYFIKWNGYNFHMLKRQFFKNGKNIIERSIRKCKKNNFSKSYHSIVYIKNGVTQYMCKNKKRGRGEQKKNIIINNKYLFLLNNFIDKNKDKTYLSTSLERKYLKNQKDDAHKIWKNRIKNYKSINIYMSKIEEKSTKEIENKDDILNKDNINNKHIYDNNKENDIFNKYNTKQYEKIIKKKNIHSILLCGGIGKRTELIGPKQFLKLNDIPLFIYSFNLFIKCNLIKSLTLVCDKKHFSCIIHSINVYNQLLLKRKMINSFLKNGNDKLNINLKECDQDEKDNIKDFSSQKINLGENHFNDDSNIIDYIHKNTYIIYDNEKNKCILDMQELLNDLSKDIKIRKKKEINEINEKHEKNEIHEKNEKHEKNEKNEKDEKDEKDEKDEKDEKHIIQIKQKHINVNRYKLLKIVESGKERLDSFLNAMKSIDIELDSQMYIYELLKKYIQGKNNKNDNISYEFEDVNINKCNKNYNSNNDSMQNNNIKDKKEEKKKKIHITNILIHDGARPFLSEIDFFNLIYYSTLDKNVILGSKATDTIKLIQHEEENKKKTTSPFIKKTIDRDTIFQAQTPQIFDSKTLHNNILTYILPMKNNEKKIKQTNINIINDNNYPNSEQQHNKQFTDTSSLYQYFNKSKKKKIFVLQSNFPNFKVTTPEDVLHSFFLMKYIYNYKFIDIEESIFKDEYINSHSSYILKKQFNNFFFYDALNEKQKILYHKFYYSSK
Km [5]: 46 ± 3 µM
